Tests used:
[1] = system: 22RV1 (Prostate Carcinoma); assay: Bliss excess, mean over the matrix (fraction); higher = more synergy
Outline: (§1)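 Cell lines grown in DMEM/F12 or RPMI with 10% FBS were plated in 1536-well plates and held 24 hours at 37°C, 5% CO2 before 72 hours of exposure to two-drug dose matrices, with DMSO typically at 0.2%. CellTiter-Glo 2.0 luminescence gave viability, which was converted to inhibition. Vehicle wells were set to 0 and blank wells to 1. Combination Emax is the second-highest inhibition in the matrix, and Bliss excess is the observed combination effect minus the expected EA + EB − EA·EB, where EA and EB are the single-agent effects.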

A204 (Rhabdomyosarcoma) = assay: as above
Outline: as §1

COLO-792 (Melanoma) = assay: as above
Outline: as §1

KP-N-YN (Neuroblastoma) = assay: as above
Outline: as §1

[2] = system: KYSE-220 (Esophageal Squamous Cell Carcinoma); assay: as above
Outline: as §1

MKN1 (Gastric Carcinoma) [3] = assay: as above
Outline: as §1

[4] = system: NCI-H1703 (Squamous Cell Lung Carcinoma); assay: as above
Outline: as §1

[5] = system: NCI-H2087 (Lung Adenocarcinoma); assay: as above
Outline: as §1

[6] = system: NCI-H716 (Colorectal Carcinoma); assay: as above
Outline: as §1

[7] = system: NCI-H841 (Small Cell Lung Carcinoma); assay: as above
Outline: as §1

PEO1 (Ovarian Carcinoma) = assay: as above
Outline: as §1

MKN1 (Gastric Carcinoma) [8] = assay: combination Emax (second highest fraction inhibited in the dose matrix, 72 h); higher = more inhibition; extreme values may be limits of the assay
Outline: as §1

[9] = system: NCI-H841 (Small Cell Lung Carcinoma); assay: as above
Outline: as §1

[10] = system: UACC-812 (Breast Carcinoma); assay: Bliss excess, mean over the matrix (fraction); higher = more synergy
Outline: as §1
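For Bliss excess, mean over the matrix in this document: after 72 h of two-drug dosing.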

| SMILES | Bliss excess [1] | Bliss excess (A204 (Rhabdomyosarcoma)) | Bliss excess (COLO-792 (Melanoma)) | Bliss excess (KP-N-YN (Neuroblastoma)) | Bliss excess [2] | Bliss excess (MKN1 (Gastric Carcinoma) [3]) | Bliss excess [4] | Bliss excess [5] | Bliss excess [6] | Bliss excess [7] | Bliss excess (PEO1 (Ovarian Carcinoma)) | combination Emax (MKN1 (Gastric Carcinoma) [8]) | combination Emax [9] | Bliss excess [10] |
| --- | --- | --- | --- | --- | --- | --- | --- | --- | --- | --- | --- | --- | --- | --- |
| NC1(C(=O)N[C@@H](CCO)c2ccc(Cl)cc2)CCN(c2ncnc3[nH]ccc23)CC1 [Capivasertib] + CCN(CCO)CCCOc1ccc2c(Nc3cc(CC(=O)Nc4cccc(F)c4)[nH]n3)ncnc2c1 [AZD2811] (first compound max 10 µM, 7x7, partner max 1 µM) | -0.0373 | -0.0058 | 0.0486 | -0.0515 | -0.0154 | -0.0067 | -0.0237 | -0.0243 | -0.0402 | -0.0415 | -0.0134 | 0.531 | 0.426 | – |
| Cn1cnc2c(F)c(Nc3ccc(Br)cc3Cl)c(C(=O)NOCCO)cc21 [Selumetinib] + C=CCn1c(=O)c2cnc(Nc3ccc(N4CCN(C)CC4)cc3)nc2n1-c1cccc(C(C)(C)O)n1 [AZD1775] (first compound max 10 µM, partner max 1 µM) | 0.0454 | -0.0511 | 0.0092 | -0.0751 | -0.0391 | -0.0326 | -0.0612 | 0.0084 | -0.0992 | -0.0536 | -0.0059 | 0.782 | 0.217 | -0.0425 |
| COc1nnc2ccc(N3CCC(c4ccc(OCCN5CCN(C)C(=O)[C@H]5C)cc4)CC3)nn12 [AZD5153] + CC1(C)CCC(CN2CCN(c3ccc(C(=O)NS(=O)(=O)c4ccc(NCC5CCOCC5)c([N+](=O)[O-])c4)c(Oc4cnc5[nH]ccc5c4)c3)CC2)=C(c2ccc(Cl)cc2)C1 [Venetoclax] (first compound max 1 µM, 7x7, partner max 1 µM) | -0.0308 | -0.0383 | -0.0162 | -0.0809 | -0.015 | -0.0062 | -0.0404 | -0.0427 | -0.0035 | -0.0317 | -0.0771 | 0.57 | 0.317 | -0.0947 |
| NC1(C(=O)N[C@@H](CCO)c2ccc(Cl)cc2)CCN(c2ncnc3[nH]ccc23)CC1 [Capivasertib] + C[C@@H]1COCCN1C2=NC(=NC(=C2)C3(CC3)[S@](=N)(=O)C)C4=C5C=CNC5=NC=C4 [AZD6738] (first compound max 10 µM, 7x7, partner max 10 µM) | -0.0527 | -0.0201 | 0.0487 | -0.0395 | -0.0523 | -0.0639 | -0.0292 | -0.0071 | -0.0317 | -0.0622 | -0.0225 | 0.807 | 0.457 | – |
| Cn1cnc2c(F)c(Nc3ccc(Br)cc3Cl)c(C(=O)NOCCO)cc21 [Selumetinib] + C[C@@H]1COCCN1C2=NC(=NC(=C2)C3(CC3)[S@](=N)(=O)C)C4=C5C=CNC5=NC=C4 [AZD6738] (first compound max 10 µM, 7x7, partner max 10 µM) | 0.0144 | -0.0363 | 0.0362 | -0.0431 | -0.0446 | 0.0183 | -0.0318 | -0.0057 | -0.0341 | -0.0212 | -0.0357 | 0.782 | 0.389 | -0.0397 |
| COc1nnc2ccc(N3CCC(c4ccc(OCCN5CCN(C)C(=O)[C@H]5C)cc4)CC3)nn12 [AZD5153] + Cc1c2c(nn1C)CSCc1cc(n(C)n1)CSc1cc(c3ccccc3c1)OCCCc1c(C(=O)O)n(C)c3c-2c(Cl)ccc13 [AZD5991] (first compound max 1 µM, 7x7, partner max 1 µM) | 0.0107 | -0.0116 | 0.0196 | -0.0362 | -0.0229 | 0.0194 | -0.0186 | -0.0328 | 0.0076 | -0.0119 | -0.0209 | 0.866 | 0.565 | 0.0365 |
| COc1nnc2ccc(N3CCC(c4ccc(OCCN5CCN(C)C(=O)[C@H]5C)cc4)CC3)nn12 [AZD5153] + C[C@@H]1COCCN1C2=NC(=NC(=C2)C3(CC3)[S@](=N)(=O)C)C4=C5C=CNC5=NC=C4 [AZD6738] (first compound max 1 µM, 7x7, partner max 10 µM) | -0.0019 | 0.042 | 0.0774 | -0.0174 | 0.0019 | 0.0483 | 0.02 | 0.0404 | -0.0312 | 0.0202 | 0.0911 | 0.936 | 0.73 | 0.0371 |
| NC1(C(=O)N[C@@H](CCO)c2ccc(Cl)cc2)CCN(c2ncnc3[nH]ccc23)CC1 [Capivasertib] + CC(=O)c1c(C)c2cnc(Nc3ccc(N4CCNCC4)cn3)nc2n(C2CCCC2)c1=O [Palbociclib] (first compound max 10 µM, 7x7, partner max 10 µM) | 0.0306 | -0.0496 | -0.0643 | -0.043 | 0.0407 | 0.0106 | 0.0189 | -0.03 | -0.0018 | -0.0365 | -0.0509 | 0.463 | 0.293 | – |
| CC(=O)c1c(C)c2cnc(Nc3ccc(N4CCNCC4)cn3)nc2n(C2CCCC2)c1=O [Palbociclib] + CC1(C)CCC(CN2CCN(c3ccc(C(=O)NS(=O)(=O)c4ccc(NCC5CCOCC5)c([N+](=O)[O-])c4)c(Oc4cnc5[nH]ccc5c4)c3)CC2)=C(c2ccc(Cl)cc2)C1 [Venetoclax] (first compound max 10 µM, 7x7, partner max 1 µM) | -0.0571 | 0.0194 | 0.0153 | -0.0844 | -0.081 | -0.0394 | 0.0004 | -0.0596 | 0.0345 | -0.0463 | -0.0062 | 0.249 | 0.0903 | – |
| NC1(C(=O)N[C@@H](CCO)c2ccc(Cl)cc2)CCN(c2ncnc3[nH]ccc23)CC1 [Capivasertib] + CC(C)n1c(=O)n(C)c2cnc3cc(F)c(-c4ccc(OCCCN5CCCCC5)nc4)cc3c21 [AZD1390] (first compound max 10 µM, 7x7, partner max 0.3 µM) | -0.0886 | -0.0575 | -0.0755 | -0.112 | -0.0659 | -0.0379 | -0.0132 | -0.0378 | -0.0701 | -0.0909 | -0.0601 | 0.39 | 0.273 | – |
| C=CCn1c(=O)c2cnc(Nc3ccc(N4CCN(C)CC4)cc3)nc2n1-c1cccc(C(C)(C)O)n1 [AZD1775] + C1CN(CCC1(C(=O)N[C@@H](CCO)C2=CC=C(C=C2)Cl)N)C3=NC=NC4=C3C=CN4 [Capivasertib] (first compound max 3 µM, partner max 3 µM) | -0.0348 | -0.0131 | 0.0596 | – | -0.0206 | -0.0236 | 0.0131 | -0.0287 | -0.034 | -0.0788 | -0.0697 | 0.821 | 0.676 | -0.0007 |
| NC1(C(=O)N[C@@H](CCO)c2ccc(Cl)cc2)CCN(c2ncnc3[nH]ccc23)CC1 [Capivasertib] + COc1nnc2ccc(N3CCC(c4ccc(OCCN5CCN(C)C(=O)[C@H]5C)cc4)CC3)nn12 [AZD5153] (first compound max 10 µM, 7x7, partner max 1 µM) | 0.0032 | 0.006 | 0.133 | -0.0718 | -0.0248 | 0.0481 | 0.0357 | 0.0179 | -0.0181 | -0.0002 | 0.0529 | 0.782 | 0.405 | – |
| CC(=O)c1c(C)c2cnc(Nc3ccc(N4CCNCC4)cn3)nc2n(C2CCCC2)c1=O [Palbociclib] + Cc1c2c(nn1C)CSCc1cc(n(C)n1)CSc1cc(c3ccccc3c1)OCCCc1c(C(=O)O)n(C)c3c-2c(Cl)ccc13 [AZD5991] (first compound max 10 µM, 7x7, partner max 1 µM) | -0.0781 | -0.026 | -0.105 | 0.0562 | -0.0645 | -0.0238 | -0.0636 | -0.0561 | -0.0343 | -0.0265 | -0.0483 | 0.313 | 0.289 | – |
| CS(=O)(=O)CCNCc1ccc(-c2ccc3ncnc(Nc4ccc(OCc5cccc(F)c5)c(Cl)c4)c3c2)o1 [Lapatinib] + C[C@@H](Oc1cc(-c2cnn(C3CCNCC3)c2)cnc1N)c1c(Cl)ccc(F)c1Cl [Crizotinib] (first compound max 10 µM, 7x7, partner max 10 µM) | -0.108 | -0.0279 | -0.0237 | -0.0084 | -0.0397 | 0.0038 | -0.0733 | -0.0499 | -0.0217 | -0.0378 | -0.0422 | 0.922 | 0.356 | – |
| NC1(C(=O)N[C@@H](CCO)c2ccc(Cl)cc2)CCN(c2ncnc3[nH]ccc23)CC1 [Capivasertib] + Cn1cnc2c(F)c(Nc3ccc(Br)cc3Cl)c(C(=O)NOCCO)cc21 [Selumetinib] (first compound max 10 µM, 7x7, partner max 10 µM) | -0.0044 | 0.0013 | 0.0139 | 0.053 | 0.0644 | 0.081 | 0.0358 | 0.016 | 0.119 | 0.0115 | -0.0358 | 0.552 | 0.308 | – |
| CN(C)CCCOc1ccc(-c2ccc3ncc4c(c3c2)n(C2CCOCC2)c(=O)n4C)cn1 [AZD0156] + O=C(c1cc(Cc2n[nH]c(=O)c3ccccc23)ccc1F)N1CCN(C(=O)C2CC2)CC1 [Olaparib] (first compound max 3 µM, partner max 3 µM) | 0.0313 | -0.0255 | 0.0844 | – | 0.191 | 0.0242 | 0.0821 | -0.043 | 0.002 | -0.0483 | -0.0891 | 0.307 | 0.208 | -0.113 |
| CC(=O)c1c(C)c2cnc(Nc3ccc(N4CCNCC4)cn3)nc2n(C2CCCC2)c1=O [Palbociclib] + Cn1cnc2c(F)c(Nc3ccc(Br)cc3Cl)c(C(=O)NOCCO)cc21 [Selumetinib] (first compound max 10 µM, 7x7, partner max 10 µM) | 0.0328 | -0.0261 | -0.0127 | -0.0253 | 0.0235 | -0.0001 | 0.0303 | -0.0101 | -0.0843 | -0.0352 | -0.0055 | 0.332 | 0.16 | – |
| C[C@@H]1COCCN1c1cc(C2([S@](C)(=N)=O)CC2)nc(-c2ccnc3[nH]ccc23)n1 [AZD6738] + C1CC(C1)(C(=O)[O-])C(=O)[O-].N.N.[Pt+2] [Carboplatin] (first compound max 10 µM, 7x7, partner max 10 µM) | -0.0138 | – | – | -0.0177 | -0.0021 | -0.0424 | -0.0312 | -0.0344 | – | -0.0587 | -0.0595 | 0.85 | 0.503 | -0.0423 |
